Patent US9889180B2, “Method of treating cancer” (Agency for Science, Technology and Research, priority 2012, dated 2018)
“Also recorded” adds a separate entry of the source.

Key:
Type in all cases: cell-based, human
[1] = test system: IFNGR1 expression and IFN-γ-STAT1 signaling; test: qRT-PCR and western blot of IFNGR1 expression and IFN-γ signaling in DU145 cells
Protocol: All cells were maintained at 37° C. with 5% CO2. Cells were grown until they were 80% confluent before they are treated the respective drugs. For drug treatment, DZNep and GSK126 were purchased from Pharmaron Inc. (Beijing, China), GSK343 was kindly provided by Chemical Probes of University of Toronto, 5′Aza, TSA and human recombinant IFN-γ was purchased from Sigma. For rescue experiment using IFNGR1 blocking antibody, the neutralizing antibody that specifically targets IFNGR1 (anti-CD119, GIR-208, BD Pharmingen) was added to the medium 4 hour prior to the addition of DZNep or/and IFN-γ. Total RNA was isolated by using Trizol (Invitrogen) and purified with the RNeasy Mini Kit (Qiagen). The microarray hybridization was performed using the Illumina Gene Expression Sentrix BeadChip HumanRef-8_V3, and data analysis was performed by GeneSpring software from Agilent Technologies as described previously. The analyzed gene sets by GeneSpring were next subjected to Ingenuity Pathway Analysis (IPA) for gene ontology (GO) analysis. Reverse transcription and quantitative PCR assays were performed using High Capacity cDNA Archive kit and KAPA SyBr Fast qPCR kit (KAPA biosystems). For quantification of mRNA levels, 18S level was used as an internal control. All reactions were analyzed in an Applied Biosystems PRISM 7500 Fast Real-Time PCR system in 96-well plate format. Western Blotting was performed as described previously. Briefly, Cells were scraped, collected, and lysed in RIPA buffer. To release histones from chromatin, cell lysates were further sonicated for 15 sec using a XL2000 Microson Ultrasonic Processor (Misonix). Equal amounts of protein (30 μg) were separated on SDS-polyacrylamide gels and transferred to PVDF membranes. The blots were probed with antibodies against EED (07-368), SUZ12 (07-379), trimethylated H3-K27 (07-449), Acetyl-Histone H3 (06-599), which were purchased from Upstate Biotechnology. IFNGR1 (GIR-94) and anti-IFI16 (1G7) were purchased from Santa Cruz. EZH2 phospho S21 (00388) was purchased from Bethyl Laboratories. EZH2 (AC22), P110α PI3K, p-AKT (T308), p-AKT (S473), pSTAT1Y701, total STAT1, Histone H3 (3H1), Beclin-1 and cleaved PARP were purchased from Cell Signaling. Myc and Actin were purchased from Roche Applied Science and Sigma-Aldrich, respectively.

DU145 cells = test: FACS sub-G1 DNA analysis (apoptosis) in DU145 cells; conditions: for apoptosis (sub-G1) after knockdown: siRNA knockdown in combination with IFN-γ
Protocol: For the assessment of cell death, cells were harvested in 70% ethanol. Fixed cells were stained with Propidium Iodide (P.I) (50 μg/mL). The stained cells were analyzed for DNA content by FACS in a FACSCalibur (Becton Dickinson Instrument). % of cell death was defined as the sub-G1 population quantified using the CellQuest software (Becton Dickinson). The percentage of dead cells or sub-G1 cells was calculated by comparing the results of each experiment to the results from DMSO-treated cells. Each assay was repeated a minimum of three times, with results reported as means+s.e.m.

[2] = test system: IFNGR1 expression and STAT1 activation; test: qRT-PCR and western blot of IFNGR1 and IFN signaling in MCF7 cells; conditions: for IFNGR1 expression: ER+ luminal MCF7 cells
Protocol: (§1) Total RNA was isolated by using Trizol (Invitrogen) and purified with the RNeasy Mini Kit (Qiagen). The microarray hybridization was performed using the Illumina Gene Expression Sentrix BeadChip HumanRef-8_V3, and data analysis was performed by GeneSpring software from Agilent Technologies as described previously. The analyzed gene sets by GeneSpring were next subjected to Ingenuity Pathway Analysis (IPA) for gene ontology (GO) analysis. Reverse transcription and quantitative PCR assays were performed using High Capacity cDNA Archive kit and KAPA SyBr Fast qPCR kit (KAPA biosystems). For quantification of mRNA levels, 18S level was used as an internal control. All reactions were analyzed in an Applied Biosystems PRISM 7500 Fast Real-Time PCR system in 96-well plate format.
(§2) Western Blotting was performed as described previously. Briefly, Cells were scraped, collected, and lysed in RIPA buffer. To release histones from chromatin, cell lysates were further sonicated for 15 sec using a XL2000 Microson Ultrasonic Processor (Misonix). Equal amounts of protein (30 μg) were separated on SDS-polyacrylamide gels and transferred to PVDF membranes. The blots were probed with antibodies against EED (07-368), SUZ12 (07-379), trimethylated H3-K27 (07-449), Acetyl-Histone H3 (06-599), which were purchased from Upstate Biotechnology. IFNGR1 (GIR-94) and anti-IFI16 (1G7) were purchased from Santa Cruz. EZH2 phospho S21 (00388) was purchased from Bethyl Laboratories. EZH2 (AC22), P110α PI3K, p-AKT (T308), p-AKT (S473), pSTAT1Y701, total STAT1, Histone H3 (3H1), Beclin-1 and cleaved PARP were purchased from Cell Signaling. Myc and Actin were purchased from Roche Applied Science and Sigma-Aldrich, respectively.

IFNGR1 expression = test: qRT-PCR of IFNGR1 in MDA-MB-231 cells; conditions: ER− basal like MDA-MB-231 cells
Protocol: as §1
as §2, with “EZH2 phospho S21 (00388) was purchased from Bethyl Laboratories. EZH2 (AC22), P110α PI3K, p-AKT (T308), p-AKT (S473), pSTAT1Y701, total STAT1, Histone H3 (3H1), Beclin-1 and cleaved PARP were purchased from Cell Signaling. Myc and Actin were purchased from Roche Applied Science and Sigma-Aldrich, respectively.” left out

[3] = test system: PC3-derived prostatospheres; test: Prostatosphere formation assay, PC3; conditions: EZH2 knockdown in combination with IFN-γ, 7 days
[4] = in response to IFN-γ stimulation

Compound	expression of IFN genes ([1]; DZNep (2.5 μM) combined with IFN-γ)	STAT1 phosphorylation ([1]; DZNep (2.5 μM) combined with IFN-γ, 3 days)	IFNGR1 expression ([1]; DZNep (2.5 μM), 3 days, hydrochloride)	IFNAR1 expression ([1]; DZNep treatment)	apoptosis (sub-G1) (DU145 cells; DZNep (2.5 μM) combined with increasing doses of IFN-γ, 3 days)	IFNGR1 expression ([2]; hydrochloride)	STAT1 activation and PARP cleavage ([2]; MCF-7 cells, DZNep co-treated with IFN-γ)	IFNGR1 expression (IFNGR1 expression)	IFNGR1 protein expression after knockdown [1]	STAT1 phosphorylation and IFI16 expression after knockdown [1, 4]	activation of IFN genes after knockdown [1, 4]	apoptosis (sub-G1) after knockdown (DU145 cells)	apoptosis (sub-G1) after knockdown (DU145 cells; listed as siEZH2)	tumorsphere formation after knockdown [3]	IFNGR1 expression [2]
Cl.Nc1nccc2c1ncn2[C@@H]1C=C(CO)[C@@H](O)[C@H]1O [DZNep, (−)-1-[(1R,4R,5S)-3-(Hydroxymethyl)-4,5-dihydroxy-2-cyclopenten-1-yl]4-aminoimidazo[4,5-c]pyridine hydrochloride]	strong inductions of IFN genes	strong inductions	induced the expression of IFNGR1; also recorded: induced a marked expression of IFNGR1	did not change IFNAR1 expression	synergistic induction of cell death	induction of IFNGR1 at both mRNA and protein levels; also recorded: restored the IFNGR1 expression	increased STAT1 activation and PARP cleavage	not seen	–	–	–	–	–	–	–
EZH2 knockdown: EZH2 siRNA: 5′-GACUCUGAAUGCAGUUGCU-3′ (SEQ ID NO: 1) (other strand not given here)	–	–	–	–	–	–	–	not seen	restored the IFNGR1 protein expression	enhanced the STAT1 phosphorylation and the expression of IF116	robust activation of IFN genes	apoptosis induction	specifically enhances IFN-γ mediated cell death	efficiently inhibited the tumorsphere formation	induction of IFNGR1 at both mRNA and protein levels
